The record followed here is patent US9096639B2, “17-hydroxy-17-pentafluorethyl-estra-4,9(10)-dien-11-acyloxyalkylene phenyl derivatives, methods for the production thereof and use thereof for treating diseases” (Bayer Intellectual Property GmbH, priority 2009, dated 2015).

As a reminder, the IC50 is the concentration needed to halve the response being measured.

Data set [1] can be described thus: Determination of stability in human plasma. The class given is in vitro ADME.
Data set [2] in a line: Determination of hydrolytic stability in synthetic gastric juice (pH 1.2 buffer with pepsin). It counts as in vitro ADME. The conditions noted are these: 37° C., pH 1.2 with added pepsin, test ended after 24 hours, read-out: Hydrolytic stability t1/2 in synthetic gastric juice (converted). As to the method: The esters to be analyzed were dissolved in each case in a buffer solution of pH 1.2 with added pepsin at 37° C. At different times, the content of ester and hydrolysis products (8S,11R,13S,14S,17S)-17-hydroxy-11-[4-((R)-1-hydroxyethyl)phenyl]-1 3-methyl-17-pentafluoroethyl-1,2,6,7,8,11,12,13,14,15,16,17-dodecahydrocyclopenta[a]phenanthren-3-one and/or (8S,11R,13S,14S,17S)-17-hydroxy-11-[4-((S)-1-hydroxyethyl)phenyl]-13-methyl-17-pentafluoroethyl-1,2,6,7,8,11,12,13,14,15,16,17-dodecahydrocyclopenta[a]phenanthren-3-one was determined by HPLC. The test was ended after 24 hours.

Data set [3] is described as follows: Determination of stability in rat plasma. It counts as in vitro ADME. The conditions noted are these: 37° C., read-out: Stability t1/2 in rat plasma (converted).
Data set [4] concerns the target T1, human progesterone receptor B (Homo sapiens, UniProt P06401).
T1 construct: expressed in transfected cells; host or cells: SK-N-MC human neuroblastoma cells, stably transfected with pRChPR-B-neo and pMMTV-LUC
T1 sequence (P06401 1-933): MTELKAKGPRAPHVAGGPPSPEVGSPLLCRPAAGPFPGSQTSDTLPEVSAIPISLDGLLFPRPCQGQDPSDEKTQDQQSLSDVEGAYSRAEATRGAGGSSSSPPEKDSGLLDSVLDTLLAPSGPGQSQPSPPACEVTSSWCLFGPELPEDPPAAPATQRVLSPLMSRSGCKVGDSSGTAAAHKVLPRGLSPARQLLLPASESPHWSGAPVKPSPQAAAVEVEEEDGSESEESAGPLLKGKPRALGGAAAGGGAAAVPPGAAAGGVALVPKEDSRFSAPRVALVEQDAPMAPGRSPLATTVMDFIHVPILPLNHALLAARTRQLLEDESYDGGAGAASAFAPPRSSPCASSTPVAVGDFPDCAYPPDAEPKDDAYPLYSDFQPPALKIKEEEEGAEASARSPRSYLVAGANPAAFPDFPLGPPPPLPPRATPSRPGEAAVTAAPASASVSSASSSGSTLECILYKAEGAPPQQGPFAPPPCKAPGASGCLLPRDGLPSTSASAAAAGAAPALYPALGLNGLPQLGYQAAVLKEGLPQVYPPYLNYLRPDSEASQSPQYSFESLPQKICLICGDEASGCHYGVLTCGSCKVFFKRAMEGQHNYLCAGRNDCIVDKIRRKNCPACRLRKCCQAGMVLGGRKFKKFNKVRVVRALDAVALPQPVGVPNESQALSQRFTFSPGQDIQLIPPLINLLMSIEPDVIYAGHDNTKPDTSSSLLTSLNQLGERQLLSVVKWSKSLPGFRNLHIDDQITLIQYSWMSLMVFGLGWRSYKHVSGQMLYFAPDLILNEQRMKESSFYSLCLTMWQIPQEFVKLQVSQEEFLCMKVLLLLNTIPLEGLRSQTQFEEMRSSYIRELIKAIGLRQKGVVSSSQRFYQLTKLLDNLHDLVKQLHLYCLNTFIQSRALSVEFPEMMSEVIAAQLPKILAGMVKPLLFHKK
As to the kind of experiment: Progesterone receptor transactivation test in stably transfected SK-N-MC cells (PR-B, MMTV-LUC reporter). The class given is cell-based. Conditions: 0.1 nmol/l promegestone, 24 hours, read-out: PR-B IC50 (antagonistic potency).

The nature of data set [5]: Determination of hydrolytic stability (5:1 dioxane/buffer, HPLC). The class given is physicochemical. Conditions: 5:1 dioxane/buffer solution, test ended after 24 or 192 hours, read-out: Hydrolytic stability t1/2.

For `CC(OC(=O)[C@H](C)NC(=O)OC(C)(C)C)c1ccc([C@H]2C[C@@]3(C)C(CC[C@@]3(O)C(F)(F)C(F)(F)F)C3CCC4=CC(=O)CCC4=C32)cc1` (mixture of isomers) [Example 7, (S)-2-tert-Butoxycarbonylaminopropionic acid (RS)-1-[4-((8S,11R,13S,-14S,17S)-17-hydroxy-13-methyl-3-oxo-17-pentafluoroethyl-2,3,6,7,8,11,12,13,14,15,16,17-dodecahydro-1H-cyclopenta[a]phenanthren-11-yl)phenyl]ethyl ester], the half-life in data set [1] (37° C., read-out: Stability t1/2 in human plasma (converted)) was > 41.7 days; in data set [1] (method of working example 19, summary statement in description, read-out: half-life in human plasma) it was > 4.17 days; in data set [2], 264 min; in data set [3] it was 186 min; in data set [5] (pH = 1.2, 23° C.) it was > 1440 min; in data set [5] (pH = 5.0, 23° C.), > 1440 min. Besides, in data set [5] (pH = 8.0, 23° C.), the half-life is > 1440 min. Besides, the IC50 in data set [4] amounted to 0.1 nM.
